From PMC10304470, “Characterization of the Antimicrobial Activities of Trichoplusia ni Cecropin A as a High-Potency Therapeutic against Colistin-Resistant Escherichia coli” (Pharmaceutics, 2023) come the findings set out here.

Read-outs that look alike come from different tables or passages of the source. Ends that are not written are not given here. Peptide text beside a SMILES is read from it.

Data set [1] concerns sheep red blood cells (sRBCs). Put plainly: Hemolysis. Particulars: 1 h, 37 °C. The data set is classed as cell-based. The procedure:
Sheep red blood cells (sRBCs; KisanBio, Seoul, Republic of Korea) were added to three volumes of phosphate-buffered saline (PBS; 35 mM phosphate buffer containing 150 mM NaCl, pH 7.4) and centrifuged five times at 4 °C, 1000× g for 5 min, followed by a final suspension in PBS at 4% (w/v). Peptides serially diluted from 100 μM to 3.1 μM in PBS at 100 μL in a 96-well plate were prepared, and an equal volume of blood solution was added. After incubation at 37 °C for 1 h, the plates were centrifuged for 5 min at 4 °C, 1000× g. The absorbance of the supernatant was measured at 405 nm. The 100% hemolysis control was 0.1% Triton-X 100 added to the blood solution; the negative control was blood solution added to PBS.

Data set [2] deals with colistin-resistant K. pneumoniae NMS 139 (ColRKP 139). It is filed as cell-based, Klebsiella pneumoniae. Particulars: MH broth, 2 × 10^5 cells/mL, 16 h, 37 °C, OD600, >95% killing. The text has this:
(§1) E. coli (KCTC 1682) was obtained from the Korean Collection for Type Cultures (KCTC, Jeongeup, Republic of Korea), and Acinetobacter baumannii (KCCM 40203) and Pseudomonas aeruginosa (KCCM 11328) from the Korea Culture Center of Microorganisms (KCCM, Seoul, Republic of Korea). Klebsiella pneumoniae (NCCP 16054), colistin-resistant E. coli NMA 1557 (ColREC 1557), NMS 12 (ColREC 12), and colistin-resistant A. baumannii NMS 1915 (ColRAB 1915), as well as colistin-resistant K. pneumoniae NMS 139 (ColRKP 139), were obtained from the National Institute of Health Multidrug Resistant Bacteria Specialized Pathogen Resources Bank (Osong, Republic of Korea).
(§2) The antibacterial abilities of the peptides (T. ni cecropin, cecropin A, polymyxin B, colistin, and melittin) were determined using the broth dilution method as previously reported. The peptides dissolved at 10 mg/mL in deionized water were serially diluted from 64 μM to 0.5 μM in 96-well plates using Mueller–Hinton (MH) broth, and bacteria cultured to exponential growth were added at 2 × 10^5 cells/mL. The group of bacteria that grew untreated in the broth was set as the positive control, and the uninoculated broth as the negative control. Dissolved peptides are colorless and equal to the OD value of the medium only. After 16 h incubation at 37 °C, the absorbance at 600 nm was measured using a SpectraMAX microplate reader (Molecular Devices, San Jose, CA, USA).

The subject of data set [3] is colistin-resistant A. baumannii NMS 1915 (ColRAB 1915). Conditions: MH broth, 2 × 10^5 cells/mL, 16 h, 37 °C, OD600, >95% killing.
Text: as §1
The peptides dissolved at 10 mg/mL in deionized water were serially diluted from 64 μM to 0.5 μM in 96-well plates using Mueller–Hinton (MH) broth, and bacteria cultured to exponential growth were added at 2 × 10^5 cells/mL. The group of bacteria that grew untreated in the broth was set as the positive control, and the uninoculated broth as the negative control. Dissolved peptides are colorless and equal to the OD value of the medium only. After 16 h incubation at 37 °C, the absorbance at 600 nm was measured using a SpectraMAX microplate reader (Molecular Devices, San Jose, CA, USA).

Data set [4] concerns Klebsiella pneumoniae (NCCP 16054). It is filed as cell-based.
Text: as §1, §2

The test system of data set [5] is Acinetobacter baumannii (KCCM 40203). It is filed as cell-based.
Text: as §1, §2

The test system of data set [6] is colistin-resistant E. coli NMS 12 (ColREC 12). The data set is classed as cell-based, Escherichia coli. Particulars: MH broth, 2 × 10^5 cells/mL, 16 h, 37 °C, OD600, >95% killing.
Text: as §1, §2

In data set [7] the test system is colistin-resistant E. coli NMA 1557 (ColREC 1557). The data set is classed as cell-based, Escherichia coli. Conditions: MH broth, 2 × 10^5 cells/mL, 16 h, 37 °C, OD600, >95% killing.
Text: as §1, §2

A further data set relates to L-929 cells. Put plainly: Cytotoxicity, WST-8. Particulars: 24 h; for viability / survival rate: up to 100 μM peptide. The data set is classed as cell-based, mouse. As for the experimental part:
(§3) Murine macrophage RAW 264.7 cells and mouse fibroblast L-929 cells were used for research and were purchased from the Korea Cell Line Bank (Seoul, Republic of Korea). Both cells were cultured in Dulbecco’s Modified Eagle’s Medium (DMEM; Welgene, Gyeongsan, Republic of Korea) supplemented with 10% fetal bovine serum and 1% antibiotics (penicillin/streptomycin) at 37 °C in the presence of 5% CO2. To measure the cytotoxicities of peptides against RAW 264.7 cells and L-929 cells, both cell lines were seeded at a density of 1 × 10^5 cells/well in a 96-well plate, to which each concentration of peptide solution (from 1.6 μM to 100 μM) was added, followed by incubation for 22 h. Subsequently, WST-8 (Biomax Co., Ltd., Guri, Republic of Korea) was added at 10% volume of the final solution, and the mixture was incubated for an additional 2 h. Absorbance was measured at 450 nm. Percentages were calculated based on untreated cells.

Another data set relates to all bacterial strains. Put plainly: Average MIC over all strains and relative selective index. Particulars: 8 strains; MIC above 64 μM taken as 128 μM. The data set is classed as cell-based. As for the experimental part: as §2
For data set [8], the system named is Pseudomonas aeruginosa (KCCM 11328). The data set is classed as cell-based.
Text: as §1, §2

For the next data set, the system named is E. coli (KCTC 1682). The data set is classed as cell-based, Escherichia coli.
Text: as §1, §2

A further data set relates to RAW 264.7 cells. Put plainly: Cytotoxicity, WST-8. Particulars: 100 μM peptide, 24 h. It is filed as cell-based, mouse. The procedure: as §3
The next data set concerns ColREC 12. Put plainly: Biofilm inhibition assay, crystal violet. Particulars: ColREC 12, 2 μM peptide, 16 h. The data set is classed as cell-based, Escherichia coli. As for the experimental part:
(§4) To quantify the biofilm inhibitory activity of each peptide, ColREC 1557 and ColREC 12 were cultured in Luria–Bertani (LB) broth overnight and then sub-cultured in MH broth. Different concentrations of peptide (from 1 μM to 64 μM) were prepared in 96-well plates using MH broth (containing 0.2% glucose) and incubated with bacteria (2 × 10^5 cells/mL) at 37 °C for 16 h. After incubation, the culture medium was removed and methanol was added as a fixative for 15 min. The completely dried plates were stained for 2 h by adding 100 μL of staining solution (0.1% (w/v) crystal violet in 0.25% (v/v) acetic acid). The residual staining solution was gently rinsed off three times using distilled water. Subsequently, 90% ethanol was used to dissolve the dye, and absorbance was measured at 600 nm. The untreated bacterial group was used as a control to compare biofilm production rates.

Data set [9] in a line: Limulus amebocyte lysate (LAL) assay, LPS neutralization. It is filed as biochemical. Conditions: LPS 2 ng/mL, 10 min, 37 °C. The procedure:
To investigate the LPS-neutralizing activity, LAL assays were performed according to the protocol provided in the LAL assay kit (ToxinSensor™ Chromogenic LAL Endotoxin Assay Kit; GenScript, Piscataway, NJ, USA). Briefly, peptides diluted from 50 μM to 1.6 μM in LAL reagent water were incubated with LPS (2 ng/mL) for 10 min at 37 °C. LAL enzyme was then added and incubated under the same conditions. Substrate was added to react, after which three kinds of stop solutions were added in order. Absorbance (545 nm) was measured and quantified using an endotoxin standard graph.

The next data set has as its system ColREC 1557. The data set is classed as cell-based, Escherichia coli. Particulars: 16 h, crystal violet. The procedure:
as §4

A further data set deals with T1, TLR4/MD-2 complex (Homo sapiens, UniProt O00206+Q9Y6Y9).
T1 construct: purchased R&D Systems
T1 sequence (O00206 24-631 limits assumed): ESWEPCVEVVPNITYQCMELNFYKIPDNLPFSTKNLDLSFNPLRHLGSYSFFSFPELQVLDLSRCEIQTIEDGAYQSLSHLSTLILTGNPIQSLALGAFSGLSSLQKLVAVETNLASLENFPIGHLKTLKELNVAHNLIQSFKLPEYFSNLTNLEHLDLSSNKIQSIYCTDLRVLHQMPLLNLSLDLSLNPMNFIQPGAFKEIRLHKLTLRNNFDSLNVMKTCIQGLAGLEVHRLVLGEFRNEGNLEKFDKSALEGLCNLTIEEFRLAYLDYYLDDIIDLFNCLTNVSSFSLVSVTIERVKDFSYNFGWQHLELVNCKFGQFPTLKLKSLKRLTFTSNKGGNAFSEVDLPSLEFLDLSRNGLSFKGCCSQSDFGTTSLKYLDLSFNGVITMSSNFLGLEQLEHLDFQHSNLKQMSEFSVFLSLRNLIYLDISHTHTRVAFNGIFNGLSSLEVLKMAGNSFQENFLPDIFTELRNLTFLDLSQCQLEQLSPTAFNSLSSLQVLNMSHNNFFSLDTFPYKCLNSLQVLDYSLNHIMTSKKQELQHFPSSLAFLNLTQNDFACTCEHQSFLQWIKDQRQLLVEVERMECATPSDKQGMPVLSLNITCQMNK
T1 sequence (Q9Y6Y9 17-160 limits assumed): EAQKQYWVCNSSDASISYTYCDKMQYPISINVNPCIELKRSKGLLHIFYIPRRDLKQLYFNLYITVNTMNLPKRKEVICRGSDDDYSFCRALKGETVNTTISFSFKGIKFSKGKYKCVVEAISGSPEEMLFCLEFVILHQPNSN
The data set can be described thus: Surface plasmon resonance (SPR). It is filed as binding. Particulars: Biacore T200, CM5 chip, PBS with 0.05% Tween 20, 25 °C, read-out: equilibrium constant (KD) for TLR4/MD2. As for the experimental part:
Binding affinity measurements of the peptide to TLR4/myeloid differentiation factor 2 (MD-2) protein (R&D Systems) were performed on a Biacore T200 instrument (GE Healthcare, Danderyd, Sweden). The receptor was covalently bound to the carboxymethylated sensor chip surface using standard NHS/EDC coupling procedures. The sensor chip (Sensor Chip CM5; Cytiva, MA, USA) was loaded with 30 μg/mL of protein in sodium acetate buffer (pH 4.0) to a resonance value of 2500. Measurements were performed at a flow rate of 30 μL/min with increasing concentrations of peptide dissolved in PBS containing 0.05% Tween 20 at 25 °C. Analysis was performed using Biacore T200 Evaluation Software 3.0 (GE Healthcare, Chicago, IL, USA).

Where [10] appears, read: K. pneumoniae, MH broth, 2 × 10^5 cells/mL, 16 h, 37 °C, OD600, >95% killing.
Setting [11] is: A. baumannii, MH broth, 2 × 10^5 cells/mL, 16 h, 37 °C, OD600, >95% killing.
Where [12] appears, read: P. aeruginosa, MH broth, 2 × 10^5 cells/mL, 16 h, 37 °C, OD600, >95% killing.
The mark [13] stands for this setting: E. coli, MH broth, 2 × 10^5 cells/mL, 16 h, 37 °C, OD600, >95% killing.

With `CC[C@H](C)[C@H](NC(=O)CN)C(=O)NCC(=O)N[C@@H](C)C(=O)N[C@H](C(=O)N[C@@H](CC(C)C)C(=O)N[C@@H](CCCCN)C(=O)N[C@H](C(=O)N[C@@H](CC(C)C)C(=O)N[C@H](C(=O)N[C@H](C(=O)NCC(=O)N[C@@H](CC(C)C)C(=O)N1CCC[C@H]1C(=O)N[C@@H](C)C(=O)N[C@@H](CC(C)C)C(=O)N[C@H](C(=O)N[C@@H](CO)C(=O)N[C@@H](Cc1c[nH]c2ccccc12)C(=O)N[C@H](C(=O)N[C@@H](CCCCN)C(=O)N[C@@H](CCCNC(=N)N)C(=O)N[C@@H](CCCCN)C(=O)N[C@@H](CCCNC(=N)N)C(=O)N[C@@H](CCC(N)=O)C(=O)N[C@@H](CCC(N)=O)C(N)=O)[C@@H](C)CC)[C@@H](C)CC)[C@@H](C)O)[C@@H](C)O)C(C)C)C(C)C` [melittin], the hemolytic activity is given as 8.2% in data set [1] (3.1 μM peptide) and 84.3% in [1] (12.5 μM peptide). The “Minimal Inhibitory Concentration” value worked out at 32 µM in data set [2]; 2 µM in data set [3]; 32 µM in data set [4] (setting [10]); 4 µM in data set [5] (setting [11]); 2 µM in [6]; 2 µM in [7]. The survival rate result with L-929 cells (1.6 μM peptide) is on record as “below 5%”.
In the case of `CC[C@H](C)CCCCC(=O)N[C@@H](CCN)C(=O)N[C@H](C(=O)N[C@@H](CCN)C(=O)N[C@H]1CCNC(=O)[C@H]([C@@H](C)O)NC(=O)[C@H](CCN)NC(=O)[C@H](CCN)NC(=O)[C@H](CC(C)C)NC(=O)[C@@H](Cc2ccccc2)NC(=O)[C@H](CCN)NC1=O)[C@@H](C)O` [polymyxin B] (HELM PEPTIDE1{[CC[C@H](C)CCCCC(=O)[*:2]].[Dab].T.[Dab].[Dab].[Dab].[dF].L.[Dab].[Dab].T}$PEPTIDE1,PEPTIDE1,5:R3-11:R2$$$V2.0; N-terminus assumed; bridges inferred), the “GM (geometric mean, average MIC value of all bacterial strains)” value (“GM” below) in the data set on all bacterial strains is 17.88 µM. In addition, the “Minimal Inhibitory Concentration” value is 64 µM in data set [2]; 64 µM in data set [3]; 2 µM in data set [8] (KCCM 11328, 16 h); 0.25 µM in [4] (NCCP 16054, 16 h); 0.5 µM in [5] (KCCM 40203, 16 h); 4 µM in data set [6]. The “Minimal Inhibitory Concentration” value in data set [7] was determined as 8 µM; with E. coli (KCTC 1682) (KCTC 1682, 16 h), 0.25 µM. Also, the cell viability in the data set with RAW 264.7 cells is reported as 31.3%. For the same compound, in the data set on L-929 cells, the “viability / survival rate” value came out at 96.0%.
As to “KWKLFKKIEKVGQNIRDGIIKAGPAVAVVGQATQIAK-NH2 [cecropin A]”, the “GM” value with all bacterial strains came to 2.25 µM. Besides, in the data set with ColREC 12, the “inhibition of biofilm formation” value is 80.8%. The “Minimal Inhibitory Concentration” value in [2] stood at 2 µM; in data set [3] it was 1 µM; in data set [8] (setting [12]), 8 µM; in [4] (setting [10]), 1 µM; in data set [5] (setting [11]) it was 2 µM; in [6], 1 µM. For the same compound, the “Minimal Inhibitory Concentration” value is 1 µM in [7] and 2 µM with E. coli (KCTC 1682) (setting [13]).
Regarding LL-37, the “peptide concentration nearly neutralizing 10 enzyme units (EU) of LPS” value in data set [9] was determined as 12.5 µM.
With “RWKFFKKIEKVGQNIRDGIIKAGPAVAVVGQAASITGK-NH2 [T. ni cecropin]”, the “GM” value in the data set with all bacterial strains was 1.63 µM. The “inhibition of biofilm formation” value is 82.5% in the data set on ColREC 12; 75.3% in the data set on ColREC 1557 (ColREC 1557, 2 μM peptide); “over 90%” in the data set with ColREC 1557 (ColREC 1557, 4 μM peptide). In data set [1] (100 μM peptide), the hemolytic activity result was “no hemolytic activity”. Besides, the “Minimal Inhibitory Concentration” value in data set [2] was found to be 2 µM; in [3], 1 µM; in [8] (setting [12]) it was 4 µM; in data set [4] (setting [10]) it was 1 µM; in data set [5] (setting [11]) it was 1 µM; in [6], 1 µM. Besides, the “Minimal Inhibitory Concentration” value is 1 µM in [7] and 2 µM in the data set on E. coli (KCTC 1682) (setting [13]). In addition, the Kd at TLR4/MD-2 complex was found to be 558 nM. For the same compound, the cell viability in the data set on RAW 264.7 cells is 93.6%. The “viability / survival rate” value with L-929 cells is on record as 95%.
